# According to publication PMC9403976, “Elucidating the path to Plasmodium prolyl-tRNA synthetase inhibitors that overcome halofuginone resistance” (Nature Communications, 2022):
# Several values for one entry are separate records, joined by “and”; a condition that tells them apart may be missing. Equal values may be shown once. Read-outs that look alike come from different tables or passages of the source.
# How the values were obtained:
# P. falciparum Dd2-2D4 = assay: P. falciparum asexual blood stage (ABS) growth assay, SYBR Green, 72 h, wild-type parasites; assay type: cell-based, Plasmodium falciparum; conditions: Plasmodium falciparum, DD2; SI Fig 16b; values on -log scale; read-out: ABS - Dd2-2D4 (converted)
# [1] = system: HFGR-I P. falciparum (elevated proline homeostasis and PfcProRS^L482H); assay: P. falciparum ABS growth assay, SYBR Green, 72 h, HFGR-I parasites; assay type: cell-based, Plasmodium falciparum; conditions: HFGR-I
# In short: (§1)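 SYBR Green 1 fluorescence after 72 h quantified growth of erythrocytic-stage Dd2 lines seeded at 1% parasitemia and 1% hematocrit. Compounds were tested in triplicate dose-response format in RPMI with 0.5% Albumax, referenced to 10 μM dihydroartemisinin and untreated wells.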
# PfcProRS = target: T1, PfcProRS (Plasmodium falciparum, UniProt Q8I5R7); assay type: binding; conditions: for Normalized response, dose-response replicates (SI Fig 14): replicates 1-3
# T1 construct: made in house; host or cells: E. coli SoluBL-21
# T1 sequence (Q8I5R7 249-746): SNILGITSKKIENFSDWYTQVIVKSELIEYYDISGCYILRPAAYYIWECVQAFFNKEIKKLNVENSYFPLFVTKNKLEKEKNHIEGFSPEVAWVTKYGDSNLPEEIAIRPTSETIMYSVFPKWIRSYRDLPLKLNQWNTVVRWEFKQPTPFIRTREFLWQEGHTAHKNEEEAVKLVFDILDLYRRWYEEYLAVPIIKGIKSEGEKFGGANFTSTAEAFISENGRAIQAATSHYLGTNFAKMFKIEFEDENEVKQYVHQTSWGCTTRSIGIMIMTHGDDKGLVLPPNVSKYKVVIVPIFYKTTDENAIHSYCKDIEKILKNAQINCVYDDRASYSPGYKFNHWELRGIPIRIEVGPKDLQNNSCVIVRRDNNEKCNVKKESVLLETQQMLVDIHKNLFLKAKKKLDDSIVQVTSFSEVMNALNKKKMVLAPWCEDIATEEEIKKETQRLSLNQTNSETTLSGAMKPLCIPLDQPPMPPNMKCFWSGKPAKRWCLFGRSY
# [2] = system: halofuginone-induced P. falciparum (elevated proline homeostasis); assay: P. falciparum ABS growth assay, SYBR Green, 72 h, halofuginone-induced parasites; assay type: cell-based, Plasmodium falciparum; conditions: Halofuginone-Induced (HFG-Induced)
# In short: as §1
# HsProRS = HsProRS (Homo sapiens, UniProt P07814); assay: TR-FRET ligand displacement assay with tracer MAT379 (CoraFluor-1-Halo and anti-His6 antibody formats); assay type: binding; parameters: made in house; host or cells: E. coli SoluBL-21; conditions: for Kd: 250 nM MAT379; for normalized TR-FRET signal (dose-response replicates): SI Fig 17a
# Sequence of HsProRS (P07814 996-1512): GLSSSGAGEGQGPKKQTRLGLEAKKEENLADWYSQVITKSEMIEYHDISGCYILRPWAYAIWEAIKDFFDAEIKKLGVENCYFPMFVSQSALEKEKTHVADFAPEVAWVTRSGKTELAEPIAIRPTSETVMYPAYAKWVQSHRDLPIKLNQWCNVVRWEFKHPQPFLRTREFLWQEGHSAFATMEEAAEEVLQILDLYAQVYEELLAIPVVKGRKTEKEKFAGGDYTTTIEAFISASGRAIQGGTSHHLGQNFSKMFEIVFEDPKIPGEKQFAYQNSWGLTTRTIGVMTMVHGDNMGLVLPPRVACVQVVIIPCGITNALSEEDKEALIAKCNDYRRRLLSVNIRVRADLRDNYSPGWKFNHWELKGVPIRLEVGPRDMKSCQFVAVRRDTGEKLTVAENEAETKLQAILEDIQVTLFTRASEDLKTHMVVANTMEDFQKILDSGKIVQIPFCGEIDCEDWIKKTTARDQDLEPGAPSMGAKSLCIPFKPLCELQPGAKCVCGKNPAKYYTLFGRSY
# [3] = Log[inhibitor] (M) -5.000, series r16-r27
smiles,measurement,setting,value
CC(C)(C)OC(=O)N1CCC[C@H]1C(=O)NCC1CCN(C(=O)Nc2nccnc2C(=O)NC2Cc3ccccc3C2)CC1 [compound 32],EC50,P. falciparum Dd2-2D4,63.2 nM
same,"parasite growth, dose-response point",[1]; [3],65 and 64 and 69
same,"parasite growth, dose-response point",[1]; Log[inhibitor] (M) -5.408,103 and 102 and 96
same,"parasite growth, dose-response point",[1]; Log[inhibitor] (M) -5.816,108 (2×) and 102
same,"parasite growth, dose-response point",[1]; Log[inhibitor] (M) -6.222,105
same,"parasite growth, dose-response point",[1]; Log[inhibitor] (M) -6.638,107 and 104 and 103
same,"parasite growth, dose-response point",[1]; Log[inhibitor] (M) -7.046,101 and 105 and 99
same,"parasite growth, dose-response point",[1]; Log[inhibitor] (M) -7.450,87 and 91 and 96
same,"parasite growth, dose-response point",[1]; Log[inhibitor] (M) -7.854,87 and 93 and 83
same,"parasite growth, dose-response point",[1]; Log[inhibitor] (M) -8.260,88 and 90 and 94
same,"parasite growth, dose-response point",[1]; Log[inhibitor] (M) -8.699,93 and 91
same,"parasite growth, dose-response point",[1]; Log[inhibitor] (M) -9.000,91 and 92 and 87
same,"parasite growth, dose-response point",[1]; Log[inhibitor] (M) -9.488,92 and 82
same,"Normalized response, dose-response replicates (SI Fig 14)",PfcProRS; Log[inhibitor] (M) -5.000,8.11E-02 and -2.06E-02 and -4.64E-02
same,"Normalized response, dose-response replicates (SI Fig 14)",PfcProRS; Log[inhibitor] (M) -5.301,3.54E-04 and -5.93E-02 and 6.94E-02
same,"Normalized response, dose-response replicates (SI Fig 14)",PfcProRS; Log[inhibitor] (M) -5.601,6.67E-02 and 8.89E-02 and 6.64E-02
same,"Normalized response, dose-response replicates (SI Fig 14)",PfcProRS; Log[inhibitor] (M) -5.904,2.31E-01 and 3.17E-01 and 2.64E-01
same,"Normalized response, dose-response replicates (SI Fig 14)",PfcProRS; Log[inhibitor] (M) -6.208,3.63E-01 and 4.57E-01 and 4.26E-01
same,"Normalized response, dose-response replicates (SI Fig 14)",PfcProRS; Log[inhibitor] (M) -6.509,7.41E-01 and 6.71E-01 and 7.68E-01
same,"Normalized response, dose-response replicates (SI Fig 14)",PfcProRS; Log[inhibitor] (M) -6.796,9.02E-01 and 7.89E-01 and 8.70E-01
same,"Normalized response, dose-response replicates (SI Fig 14)",PfcProRS; Log[inhibitor] (M) -7.108,8.53E-01 and 8.96E-01 and 8.71E-01
same,"Normalized response, dose-response replicates (SI Fig 14)",PfcProRS; Log[inhibitor] (M) -7.409,8.49E-01 and 8.87E-01 and 9.83E-01
same,"Normalized response, dose-response replicates (SI Fig 14)",PfcProRS; Log[inhibitor] (M) -7.710,9.08E-01 and 9.29E-01 and 9.85E-01
same,"Normalized response, dose-response replicates (SI Fig 14)",PfcProRS; Log[inhibitor] (M) -8.000,9.86E-01 and 8.66E-01 and 9.79E-01
same,"Normalized response, dose-response replicates (SI Fig 14)",PfcProRS; Log[inhibitor] (M) -8.301,1.11E+00 and 8.88E-01 and 9.05E-01
same,"Normalized response, dose-response replicates (SI Fig 14)",PfcProRS; Log[inhibitor] (M) -8.602,9.30E-01 and 8.25E-01 and 1.02E+00
same,"Normalized response, dose-response replicates (SI Fig 14)",PfcProRS; Log[inhibitor] (M) -9.000,8.77E-01 and 8.28E-01 and 9.46E-01
same,"Normalized response, dose-response replicates (SI Fig 14)",PfcProRS; Log[inhibitor] (M) -9.301,8.47E-01 and 9.35E-01 and 9.98E-01
same,PfcProRS -- best Kd,"PfcProRS; SI Fig 16a, values on -log scale",8.272
same,"parasite growth, dose-response point",[2]; [3],56 and 59 and 61
same,"parasite growth, dose-response point",[2]; Log[inhibitor] (M) -5.408,91 and 93
same,"parasite growth, dose-response point",[2]; Log[inhibitor] (M) -5.816,97 and 101
same,"parasite growth, dose-response point",[2]; Log[inhibitor] (M) -6.222,101 and 104
same,"parasite growth, dose-response point",[2]; Log[inhibitor] (M) -6.638,105 and 99 and 109
same,"parasite growth, dose-response point",[2]; Log[inhibitor] (M) -7.046,102 and 106
same,"parasite growth, dose-response point",[2]; Log[inhibitor] (M) -7.450,96 and 98 and 97
same,"parasite growth, dose-response point",[2]; Log[inhibitor] (M) -7.854,92 and 97 and 99
same,"parasite growth, dose-response point",[2]; Log[inhibitor] (M) -8.260,102 and 96 and 100
same,"parasite growth, dose-response point",[2]; Log[inhibitor] (M) -8.699,96 and 106 and 94
same,"parasite growth, dose-response point",[2]; Log[inhibitor] (M) -9.000,100 and 96 and 98
same,"parasite growth, dose-response point",[2]; Log[inhibitor] (M) -9.488,96 and 100 and 101
same,Kd,"HsProRS; HsProRS (KD [nM]) + proline, 100 μM proline",270 nM
same,Kd,"HsProRS; HsProRS (KD [nM]) −, absence of substrates",72.1 nM
same,"normalised signal, dose-response point (Fig 4d)","HsProRS; Log[inhibitor] (M) -5.000, series of 32",2.12E-01 and 2.00E-01 and 2.05E-01
same,"normalised signal, dose-response point (Fig 4d)",HsProRS; Log[inhibitor] (M) -5.260,3.41E-01 and 3.06E-01 and 3.25E-01
same,"normalised signal, dose-response point (Fig 4d)",HsProRS; Log[inhibitor] (M) -5.520,5.51E-01 and 5.09E-01 and 5.11E-01
same,"normalised signal, dose-response point (Fig 4d)",HsProRS; Log[inhibitor] (M) -5.770,5.87E-01 and 6.67E-01 and 6.60E-01
same,"normalised signal, dose-response point (Fig 4d)",HsProRS; Log[inhibitor] (M) -6.020,8.17E-01 and 7.53E-01 and 7.81E-01
same,"normalised signal, dose-response point (Fig 4d)",HsProRS; Log[inhibitor] (M) -6.280,8.69E-01 and 9.20E-01 and 9.33E-01
same,"normalised signal, dose-response point (Fig 4d)",HsProRS; Log[inhibitor] (M) -6.530,9.20E-01 and 9.88E-01 and 9.42E-01
same,"normalised signal, dose-response point (Fig 4d)",HsProRS; Log[inhibitor] (M) -6.800,9.40E-01 and 8.89E-01
same,"normalised signal, dose-response point (Fig 4d)",HsProRS; Log[inhibitor] (M) -7.060,9.33E-01 and 9.82E-01 and 1.04E+00
same,"normalised signal, dose-response point (Fig 4d)",HsProRS; Log[inhibitor] (M) -7.320,9.28E-01 and 1.05E+00 and 1.04E+00
same,"normalised signal, dose-response point (Fig 4d)",HsProRS; Log[inhibitor] (M) -7.550,9.75E-01 and 9.78E-01 and 9.48E-01
same,"normalised signal, dose-response point (Fig 4d)",HsProRS; Log[inhibitor] (M) -7.800,9.53E-01 and 9.20E-01 and 9.82E-01
same,"normalised signal, dose-response point (Fig 4d)",HsProRS; Log[inhibitor] (M) -8.100,1.05E+00 and 1.02E+00 and 1.07E+00
same,"normalised signal, dose-response point (Fig 4d)",HsProRS; Log[inhibitor] (M) -8.400,1.08E+00 and 1.05E+00 and 1.02E+00
same,"normalised signal, dose-response point (Fig 4d)",HsProRS; Log[inhibitor] (M) -8.590,1.09E+00 and 1.06E+00 and 1.01E+00
same,normalized TR-FRET signal (dose-response replicates),HsProRS; Log[inhibitor] (M) -5.000,2.39E-01 and 2.20E-01 and 1.87E-01
same,normalized TR-FRET signal (dose-response replicates),HsProRS; Log[inhibitor] (M) -5.301,3.62E-01 and 3.47E-01 and 3.37E-01
same,normalized TR-FRET signal (dose-response replicates),HsProRS; Log[inhibitor] (M) -5.601,5.14E-01 and 4.86E-01 and 5.28E-01
same,normalized TR-FRET signal (dose-response replicates),HsProRS; Log[inhibitor] (M) -5.904,6.65E-01 and 6.61E-01 and 6.44E-01
same,normalized TR-FRET signal (dose-response replicates),HsProRS; Log[inhibitor] (M) -6.208,7.43E-01 and 7.50E-01 and 7.76E-01
same,normalized TR-FRET signal (dose-response replicates),HsProRS; Log[inhibitor] (M) -6.509,8.47E-01 and 8.09E-01 and 8.87E-01
same,normalized TR-FRET signal (dose-response replicates),HsProRS; Log[inhibitor] (M) -6.796,8.64E-01 and 8.39E-01 and 8.67E-01
same,normalized TR-FRET signal (dose-response replicates),HsProRS; Log[inhibitor] (M) -7.108,8.86E-01 and 8.93E-01 and 9.29E-01
same,normalized TR-FRET signal (dose-response replicates),HsProRS; Log[inhibitor] (M) -7.409,9.16E-01 and 8.51E-01 and 8.90E-01
same,normalized TR-FRET signal (dose-response replicates),HsProRS; Log[inhibitor] (M) -7.710,8.73E-01 and 8.93E-01 and 9.04E-01
same,normalized TR-FRET signal (dose-response replicates),HsProRS; Log[inhibitor] (M) -8.000,8.95E-01 and 8.48E-01 and 9.51E-01
same,normalized TR-FRET signal (dose-response replicates),HsProRS; Log[inhibitor] (M) -8.301,9.44E-01 and 8.99E-01 and 9.43E-01
same,normalized TR-FRET signal (dose-response replicates),HsProRS; Log[inhibitor] (M) -8.602,9.47E-01 and 8.94E-01 and 9.08E-01
same,normalized TR-FRET signal (dose-response replicates),HsProRS; Log[inhibitor] (M) -9.000,8.96E-01 and 9.17E-01 and 8.59E-01
same,normalized TR-FRET signal (dose-response replicates),HsProRS; Log[inhibitor] (M) -9.301,8.96E-01 and 9.24E-01 and 9.14E-01
